Our source for the deltaT, Ki and Activity values is ChEMBL document CHEMBL1649369, “Novel 4-aryl-pyrido[1,2-c]pyrimidines with dual SSRI and 5-HT(1A) activity. part 3” (Eur J Med Chem, 2011).

The structures appear in SMILES notation. Calls of active or inactive are those of the source. No cut-off for these calls is given here.

The Ki is the dissociation constant of the complex between target and ligand, obtained from inhibition or displacement. A higher Ki goes with lower affinity.

For experiment [1], the system named is Mus musculus. Nature of the experiment: Reduction of 8-OH-DPAT-induced hypothermia in Swiss albino mouse at 20 mg/kg, ip administered 45 mins prior 8-OH-DPAT challenge measured after 15 mins by inducible hypothermia test. The class given is functional, organism-based. On the set-up: dose 20 mg/kg.
Experiment [2] concerns Mus musculus. The experiment can be described thus: Reduction of 8-OH-DPAT-induced hypothermia in Swiss albino mouse at 20 mg/kg, ip administered 45 mins prior 8-OH-DPAT challenge measured after 45 mins by inducible hypothermia test. Details: dose 20 mg/kg. It counts as functional, organism-based.
For experiment [3], the system named is Mus musculus. The experiment can be described thus: Reduction of 8-OH-DPAT-induced hypothermia in Swiss albino mouse at 20 mg/kg, ip administered 45 mins prior 8-OH-DPAT challenge measured after 60 mins by inducible hypothermia test. It counts as functional, organism-based. Details: dose 20 mg/kg.
Experiment [4] addresses T1, 5-hydroxytryptamine receptor 1A (Rattus norvegicus, UniProt P19327).
T1 sequence (P19327 whole entry): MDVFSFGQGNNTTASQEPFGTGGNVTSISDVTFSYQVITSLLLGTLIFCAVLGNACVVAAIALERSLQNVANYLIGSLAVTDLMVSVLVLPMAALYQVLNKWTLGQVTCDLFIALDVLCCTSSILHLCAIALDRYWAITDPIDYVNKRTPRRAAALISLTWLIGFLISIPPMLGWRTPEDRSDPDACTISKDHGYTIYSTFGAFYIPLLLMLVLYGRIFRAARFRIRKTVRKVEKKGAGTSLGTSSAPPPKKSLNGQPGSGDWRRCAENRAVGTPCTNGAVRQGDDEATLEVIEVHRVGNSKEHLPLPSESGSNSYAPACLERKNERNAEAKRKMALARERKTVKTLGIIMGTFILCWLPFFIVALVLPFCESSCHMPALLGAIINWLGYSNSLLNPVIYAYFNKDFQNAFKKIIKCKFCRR
Nature of the experiment: Displacement of [3H]8-OH-DPAT from 5-HT1A receptor in rat hippocampus. The class given is tissue-based. In general terms: Loss of bound radioactivity is the signal in a displacement assay; it reports binding, not function.

The target of experiment [5] is Sodium-dependent serotonin transporter (Rattus norvegicus, UniProt P31652). Nature of the experiment: Displacement of [3H]citalopram from SERT in rat cerebral cortex by liquid scintillation counting. It counts as tissue-based.
Sequence of Sodium-dependent serotonin transporter (P31652 whole entry): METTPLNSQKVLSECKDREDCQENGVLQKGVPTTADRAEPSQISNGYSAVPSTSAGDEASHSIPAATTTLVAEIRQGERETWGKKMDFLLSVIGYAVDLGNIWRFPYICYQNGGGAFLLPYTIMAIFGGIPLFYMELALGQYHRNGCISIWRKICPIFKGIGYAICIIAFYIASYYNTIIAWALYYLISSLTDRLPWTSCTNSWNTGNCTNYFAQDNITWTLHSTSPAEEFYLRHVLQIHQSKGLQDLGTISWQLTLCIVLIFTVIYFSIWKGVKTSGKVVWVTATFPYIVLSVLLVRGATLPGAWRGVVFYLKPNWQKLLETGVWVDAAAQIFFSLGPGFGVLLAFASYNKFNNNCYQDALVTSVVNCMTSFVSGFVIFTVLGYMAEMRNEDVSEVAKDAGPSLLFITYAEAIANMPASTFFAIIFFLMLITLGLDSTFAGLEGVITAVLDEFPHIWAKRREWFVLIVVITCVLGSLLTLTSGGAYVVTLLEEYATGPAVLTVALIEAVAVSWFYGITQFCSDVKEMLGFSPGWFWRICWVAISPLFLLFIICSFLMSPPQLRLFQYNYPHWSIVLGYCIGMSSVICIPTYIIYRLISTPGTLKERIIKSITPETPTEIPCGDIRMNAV
Experiment [6] concerns Mus musculus. The experiment can be described thus: Reduction of 8-OH-DPAT-induced hypothermia in Swiss albino mouse at 20 mg/kg, ip administered 45 mins prior 8-OH-DPAT challenge measured after 30 mins by inducible hypothermia test. Details: dose 20 mg/kg. The class given is functional, organism-based.
The subject of experiment [7] is Mus musculus. The experiment can be described thus: Effect on hypothermia in Swiss albino mouse assessed as change in rectal body temperature at 5 mg/kg, ip after 60 mins by inducible hypothermia test. The class given is functional, organism-based. Details: dose 5 mg/kg.
Experiment [8] concerns Mus musculus. The experiment can be described thus: Effect on hypothermia in Swiss albino mouse assessed as change in rectal body temperature at 2.5 mg/kg, ip after 60 mins by inducible hypothermia test. On the set-up: dose 2.5 mg/kg. The class given is functional, organism-based.
Experiment [9] has as its system Mus musculus. The experiment can be described thus: Effect on hypothermia in Swiss albino mouse assessed as change in rectal body temperature at 5 mg/kg, ip after 120 mins by inducible hypothermia test. The class given is functional, organism-based. On the set-up: dose 5 mg/kg.
The test system of experiment [10] is Mus musculus. The experiment can be described thus: Effect on hypothermia in Swiss albino mouse assessed as change in rectal body temperature at 5 mg/kg, ip dosed 15 mins after 0.1 mg/kg, sc WAY 100635 challenge measured after 30 mins by inducible hypothermia test. The class given is functional, organism-based.
Experiment [11] deals with Mus musculus. Nature of the experiment: Effect on hypothermia in Swiss albino mouse assessed as change in rectal body temperature at 2.5 mg/kg, ip after 30 mins by inducible hypothermia test. It counts as functional, organism-based. Details: dose 2.5 mg/kg.
In experiment [12] the test system is Mus musculus. The experiment can be described thus: Effect on hypothermia in Swiss albino mouse assessed as change in rectal body temperature at 2.5 mg/kg, ip after 120 mins by inducible hypothermia test. On the set-up: dose 2.5 mg/kg. The class given is functional, organism-based.
The subject of experiment [13] is Mus musculus. The experiment can be described thus: Effect on hypothermia in Swiss albino mouse assessed as change in rectal body temperature at 5 mg/kg, ip after 90 mins by inducible hypothermia test. It counts as functional, organism-based. Details: dose 5 mg/kg.
The subject of experiment [14] is Mus musculus. Nature of the experiment: Effect on hypothermia in Swiss albino mouse assessed as change in rectal body temperature at 2.5 mg/kg, ip after 90 mins by inducible hypothermia test. Details: dose 2.5 mg/kg. It counts as functional, organism-based.
The test system of experiment [15] is Mus musculus. Nature of the experiment: Effect on hypothermia in Swiss albino mouse assessed as change in rectal body temperature at 5 mg/kg, ip dosed 15 mins after 0.1 mg/kg, sc WAY 100635 challenge measured after 60 mins by inducible hypothermia test. The class given is functional, organism-based.
Experiment [16] relates to Mus musculus. The experiment can be described thus: Antidepressant activity in Swiss albino mouse assessed as total immobility time at 2.5 mg/kg, ip administered 30 mins before test measured 6 mins test session after 2 mins habituation period by forced swimming test. It counts as functional, organism-based. On the set-up: dose 2.5 mg/kg.
Experiment [17] relates to Mus musculus. The experiment can be described thus: Antidepressant activity in Swiss albino mouse assessed as total immobility time at 5 mg/kg, ip administered 30 mins before test measured 6 mins test session after 2 mins habituation period by forced swimming test. It counts as functional, organism-based. On the set-up: dose 5 mg/kg.
In experiment [18] the test system is Mus musculus. The experiment can be described thus: Effect on hypothermia in Swiss albino mouse assessed as change in rectal body temperature at 5 mg/kg, ip after 30 mins by inducible hypothermia test. It counts as functional, organism-based. Details: dose 5 mg/kg.

For `O=c1c(-c2ccc(F)cc2)c2n(c(=O)n1CCCCN1CCC(c3c[nH]c4ccccc34)CC1)CCCC2`, the deltaT is -0.7 °C in the experiment with Mus musculus [1], -1.1 °C in the experiment with Mus musculus [2], -0.6 °C in the experiment with Mus musculus [3] and -1.6 °C in the experiment with Mus musculus [6]. Further, the results for the inhibition constant Ki in [4] and in experiment [5] were 62.3 nM and 47 nM, respectively.
Regarding `O=c1c(-c2ccc(Cl)cc2)c2n(c(=O)n1CCCCN1CCC(c3c[nH]c4ccccc34)CC1)CCCC2`, the deltaT was -0.5 °C in the experiment with Mus musculus [7]; -0.4 °C with Mus musculus [8]; -0.3 °C in the experiment on Mus musculus [9]; -0.2 °C with Mus musculus [10]; -0.3 °C in the experiment on Mus musculus [11]; -0.1 °C in the experiment on Mus musculus [12]. Moreover, the deltaT in the experiment on Mus musculus [13] was -0.4 °C; with Mus musculus [14] it was -0.1 °C; with Mus musculus [15], -0.1 °C; in the experiment with Mus musculus [18], -1 °C. Further, the inhibitory constant (Ki) turned out to be 48.6 nM in experiment [4] and 44.1 nM in experiment [5]. Also, the outcome with Mus musculus [16] and in the experiment with Mus musculus [17] was inactive.
